Source: patent publication US8008312B2, “CXCR4 antagonists for the treatment of HIV infection” (Emory University, priority 2005, dated 2011)
Like-named read-outs stand apart in the source and are kept apart here.

Columns and labels:
HXB2 = test: Phenoscreen viral entry inhibition assay, HXB2; type: cell-based, HIV
Protocol: (§1) A selected set of compounds were tested for their ability to inhibit the cellular entry of T-tropic HIV. The assay for this inhibition has been carried out on a contractural basis at Monogram Biosciences, Inc. using their well established Phenoscreen™ assay. Briefly, HIV strains of interest are tagged with a luciferase indicator gene to create an appropriate test vector. The test vector is amplified through transfection and the resulting virus is incubated in the presence of target host cells where intracellular florescence activity then becomes a measure of infection. Amplified virus is exposed to target host cells in the presence of a range of test drug concentrations to determine IC50 measurements of entry inhibition. A modification of this test has been further reapplied as a novel drug assay that has been used in partnership with a number of pharmaceutical companies to test the effectiveness of novel entry inhibitors that target specific chemokines. It can used to detect activity against T-tropic, M-tropic, and dual-tropic viruses and Monogram Biosciences has a large bank of over 10,000 different virus strains to ultimately asses the range of applicability of our CXCR4 antagonists. Certain compounds have been tested to establish efficacy in a number of viral strains.

NL4-3 = test: Phenoscreen viral entry inhibition assay, NL4-3; type: cell-based, HIV
Protocol: as §1

Vrs-1 = test: Phenoscreen viral entry inhibition assay, Vrs-1; type: cell-based, HIV
Protocol: as §1

Vrs-2 = test: Phenoscreen viral entry inhibition assay, Vrs-2; type: cell-based, HIV; details: Human immunodeficiency virus 1, read-out: Viral Entry Inhibition Vrs-2
Protocol: as §1

Vrs-3 = test: Phenoscreen viral entry inhibition assay, Vrs-3; type: cell-based, HIV
Protocol: as §1

Dual = test: Phenoscreen viral entry inhibition assay, Dual; type: cell-based, HIV; details: Human immunodeficiency virus 1, read-out: Viral Entry Inhibition Dual
Protocol: as §1

SHIV = test: Phenoscreen viral entry inhibition assay, SHIV; type: cell-based
Protocol: as §1

CXCR4 [1] = target: T1, CXCR4 (Homo sapiens, UniProt P61073); test: Competition assay using biotin-labeled TN14003 on tumor cells; type: binding; details: FIG. 5, cells pre-incubated with various concentrations; read-out: IC50 (biotin-labeled TN14003 detection of CXCR4 after pre-incubation)
T1 sequence (P61073 whole entry): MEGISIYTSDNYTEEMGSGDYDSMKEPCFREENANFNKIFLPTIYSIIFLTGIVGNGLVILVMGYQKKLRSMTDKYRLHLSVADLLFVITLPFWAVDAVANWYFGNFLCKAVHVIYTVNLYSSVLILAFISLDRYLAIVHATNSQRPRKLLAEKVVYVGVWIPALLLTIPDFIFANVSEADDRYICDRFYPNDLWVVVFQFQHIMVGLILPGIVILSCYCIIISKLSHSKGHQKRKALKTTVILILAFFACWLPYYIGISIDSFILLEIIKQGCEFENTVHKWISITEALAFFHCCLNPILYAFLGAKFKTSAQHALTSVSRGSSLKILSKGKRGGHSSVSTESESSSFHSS
Protocol: Biotin-labeled TN14003 was used to detect CXCR4 protein from the cells pre-incubated with various concentrations of WZZL811S.
Using biotin-labeled TN14003 along with streptavidin-conjugated rhodamine allowed a determination of the binding efficiency of these chemicals to the SDF-1 binding site of CXCR4 on tumor cells and compared it to AMD3100-SDF-1 interactions (FIG. 4). […] Cells were pre-incubated with different concentrations of AMD3100. […] Therefore, one of these compounds, WZZL811S, was selected to study its therapeutic potential based on potency and low toxicity to cells (FIG. 6).

MDA-MB-231 cells = test: Cell viability of MDA-MB-231 cells; type: cell-based; details: even at 100 μM (the highest concentration tested)
CXCR4 [2] = target: T1, CXCR4; test: Competition screening using the native CXCR4 ligand SDF-1; type: binding; details: competition with SDF-1
Half-life in mice = details: mouse, in vivo, read-out: t1/2 (min) in mice
CXCR4 [3] = target: T1, CXCR4; test: SDF-1 stimulated phosphorylation of Akt in MDA-MB-231 cells; type: cell-based; details: 100 ng/ml SDF-1, 30 minutes; FIG. 2
Protocol: FIG. 2 is an image of a western blot showing phosphorylation of Akt. Incubating MDA-MB-231 cells with 100 ng/ml of SDF-1 for 30 min stimulated phosphorylation of Akt. This activation was blocked with TN14003 or AMD3100 in a dose-dependent manner.
CXCR4/SDF-1 interaction activates PI3K/Akt and Ras/Raf/MEK/Erk pathways in a Gas protein (PTX-sensitive)-dependent manner. Experiments were conducted to determine the effect of blocking CXCR4/SDF-1 interaction by either TN14003 or AMD3100 at different concentrations (0, 0.01, 0.1, 1, 10, 100, 1000 nM) on phosphorylations of Akt and Erk1/2 signaling. Incubating cells with 100 ng/ml of SDF-1 for 30 minutes activated Akt. […] However, the increase in Erk1/2 phosphorylation by SDF-1 was not significant as the increase in Akt phosphorylation.

CXCR4 [4] = target: T1, CXCR4; test: SDF-1 stimulated Erk1/2 phosphorylation; type: cell-based; details: SDF-1 stimulation; data not shown
Source text: CXCR4/SDF-1 interaction activates PI3K/Akt and Ras/Raf/MEK/Erk pathways in a Gas protein (PTX-sensitive)-dependent manner.

CXCR4 [5] = target: T1, CXCR4; test: CXCR4 protein levels after treating cells; type: cell-based
MT-4 cells = details: cited from earlier work

## c1ccc(NCc2ccc(CNc3ccccn3)cc2)nc1 [WZZL811S]
HXB2; Human immunodeficiency virus 1, HXB2, read-out: Viral Entry Inhibition HXB2
  IC50: > 15000 nM
NL4-3; Human immunodeficiency virus 1, NL43, read-out: Viral Entry Inhibition NL4-3
  IC50: > 15000 nM
Vrs-1; Human immunodeficiency virus 1, read-out: Viral Entry Inhibition Vrs-1
  IC50: > 15000 nM
Vrs-2
  IC50: ~12000 nM
Vrs-3; Human immunodeficiency virus 1, read-out: Viral Entry Inhibition Vrs-3
  IC50: > 15000 nM
Dual
  IC50: > 15000 nM
SHIV
  IC50: > 15000 nM
CXCR4 [1]
  IC50: < 1 nM
MDA-MB-231 cells
  cell viability of MDA-MB-231 cells: did not decrease cell viability

## c1ccc(NCc2ccc(CNc3ccccn3)cc2)nc1 [drawing 204]
CXCR4 [2]
  IC50: < 10 nM

## c1cnc(NCc2ccc(CNc3ncccn3)cc2)nc1 [drawing 205]
CXCR4 [2]
  IC50: < 10 nM
Half-life in mice
  half-life: 45 min

## OCc1ccc(CNc2ncccn2)cc1 [drawing 206]
CXCR4 [2]
  IC50: < 10 nM

## c1ccc(NCc2ccc(CNc3ccccc3)cc2)cc1 [drawing 208]
CXCR4 [2]
  IC50: < 10 nM
Half-life in mice
  half-life: 11 min

## c1ccc(NCc2cccc(CNc3ccccc3)c2)cc1 [drawing 209]
CXCR4 [2]
  IC50: < 10 nM
Half-life in mice
  half-life: < 5 min

## c1ccc(CNCc2ccc(CNCc3ccccc3)cc2)cc1 [drawing 210]
CXCR4 [2]
  IC50: < 100 nM

## CC(Nc1ccccc1)c1ccc(C(C)Nc2ccccc2)cc1 (centres unmarked) [drawing 211]
CXCR4 [2]
  IC50: < 100 nM
Half-life in mice
  half-life: 13.7 min

## Cc1cc(CNc2ccccc2)c(C)cc1CNc1ccccc1 [drawing 212]
CXCR4 [2]
  IC50: > 100 nM

## Fc1ccccc1NCc1ccc(CNc2ccccc2F)cc1 [drawing 213]
CXCR4 [2]
  IC50: < 10 nM

## c1ccc(NCc2ccc(CNc3ncccn3)cc2)cc1 [drawing 214]
Half-life in mice
  half-life: 14 min

## COc1ccnc(NCc2ccc(CNc3nccc(OC)n3)cc2)n1 [drawing 215]
CXCR4 [2]
  IC50: 10 nM

## COc1cccc(NCc2ccc(CNc3cccc(OC)c3)cc2)c1 [drawing 216]
CXCR4 [2]
  IC50: 1 nM
Half-life in mice
  half-life: 14.3 min

## TN14003 [reference compound]
HXB2; HXB2 strain, read-out: Viral Entry Inhibition HXB2
  IC50: 10 nM
NL4-3; NL4-3 strain, read-out: Viral Entry Inhibition NL4-3
  IC50: 5 nM
Vrs-1; Vrs-1 strain, read-out: Viral Entry Inhibition Vrs-1
  IC50: 10 nM
Vrs-3; Vrs-3 strain, read-out: Viral Entry Inhibition Vrs-3
  IC50: 25 nM
SHIV; SHIV
  IC50: 7 nM
CXCR4 [3]
  concentration blocking Akt activation: sub-nano molar concentration
CXCR4 [4]
  concentration attenuating Erk1/2 phosphorylation: sub-nano molar concentration
CXCR4 [5]
  effect on CXCR4 protein levels: did not affect CXCR4 protein levels
MT-4 cells
  concentration leading to 50% toxicity: 410 µM
